Values quoted from earlier work, collected in US20170095445A1 (priority 2012, published 2017).
Residues, ends and D or L forms follow the SMILES beside them.

Test system: asthma induced by sensitization and challenge with ovalbumin
Settings: mouse, in vivo

CC(=O)NC(CS)C(=O)N1CCCC1C(=O)NC(CS)C(N)=O (stereo not drawn) [R-901, 1-(2-acetamido-3-mercaptopropanoyl)-N-(1-amino-3-mercapto-1-oxopropan-2-yl) pyrrolidine-2-carboxamide] (Ac-Cys-Pro-Cys-NH2; configuration not given here)
efficacy in murine model of asthma: efficacious
